SMILES strings stand for the structures. Like-named read-outs stand apart in the source and are kept apart here.

Series [1] can be described thus: Solubility in distilled water and normal saline, visual inspection and HPLC. Format: physicochemical. Conditions: for Aqueous solubility checked on HPLC: aqueous solution, analogs compared with MFA; for Aqueous solubility on visual inspection: analogs compared with parent MFA. An excerpt:
The solubility of each molecular structure was checked in distilled water as well as in normal saline.

Series [2] concerns pilocarpine-induced seizure rats. Nature of the series: BBB permeability by contrast-enhanced MRI (Gd-DTPA) in rat seizure pre-clinical model. Format: in vivo. On the procedure: Structure (I), MFA-NIC, was assessed as a possible therapeutic in a rat seizure pre-clinical model. Assessments were conducted using Contrast-enhanced (CE) magnetic resonance (MR) imaging (MRI) and MR spectroscopy (MRS). The seizure model initially involved injection of pilocarpine (380 mg/kg i.p.) alone (Ikonomidou-Turski et al., 1988), however all rats undergoing this procedure died before MRS data could be obtained. A more recent model by Jeong et al. (2017) was adopted, where a lower dose of pilocarpine (25 mg/kg i.p.) was preceded by lithium chloride (127 mg/kg i.p.) 19 hours before, and scopolamine (2 mg/kg i.p.) 30 min. before, pilocarpine. Injection of pilocarpine induced status epilepticus about 20-30 min post-pilocarpine (Jeong et al., 2017). Pascente et al. (2016) also used lithium chloride 18 hours before pilocarpine. Scopolamine was also used by Behr et al. (2017) 30 m in before pilocarpine. Electroencephalography (EEG) was used in the Behr et al. study to confirm seizures.
A MRI contrast agent, Gd-DTPA (gadolinium diethylene triamine penta acetic acid) was used to establish if there was increased BBB permeability. […] Three brain regions were assessed: hippocampus, thalamus and cerebral cortex. […] This may be due to the variability in the change in MRI signal intensity in the seizure group, and the low number of rats per group. The smaller variability in the saline-treated controls was due to the large […] of n=25 (obtained from a previous study conducted in the Towner group). […] The saline-treated controls were used for all statistical comparisons.

For series [3] the following is noted: pH 7.1; cited from earlier work.
Series [4] is described as follows: Stability study of MFA analogs in acetonitrile and distilled water, 1 day and 7 days, visual and HPLC. Conditions: for Stability 1 Day ACN 4° C. / Stability 1 Day ACN RT / Stability 7 Day ACN 4° C. / Stability 7 Day ACN RT: acetonitrile; for Stability 1 Day ACN RT / Stability 7 Day ACN RT / Stability 1 Day DW RT / Stability 7 Day DW RT: room temperature (~25° C.); for Stability in acetonitrile / Stability in distilled water after 1 day: after 1 day; for Stability in acetonitrile and in distilled water up to 7 days: 4° C. and room temperature (~25° C.); for Stability 7 Day ACN 4° C. / Stability 7 Day ACN RT / Stability 7 Day DW 4° C. / Stability 7 Day DW RT: 7 days; for Stability 1 Day DW 4° C. / Stability 7 Day DW 4° C. / Stability 1 Day DW RT / Stability 7 Day DW RT: distilled water. Format: physicochemical. An excerpt: Therapeutic agents stable after 1 day were subjected to a 7 day stability study.
FIG. 1 provides the HPLC chromatogram of MFA-NIC showing stability of the modified drug kept at room temperature on day seven. FIG. 2 provides the HPLC chromatogram of MFA-MeNIC showing stability of the modified drug kept at room temperature on day seven.

The test system of series [5] is pilocarpine-induced seizure rats. As to the kind of experiment: Brain metabolite levels by MR spectroscopy (ratios to Cho) in rat seizure pre-clinical model. Format: in vivo.
Series [6] has the same test system. As to the kind of experiment: EEG of seizure episodes in rat seizure model. Format: in vivo. Conditions: preliminary data.
Setting [7] is: cerebral cortex, 50 mg/kg via gavage.
The mark [8] stands for this setting: cerebral cortex, 200 mg/kg via gavage.
Where [9] appears, read: distilled water, water, solvent DW (distilled water), read-out: Solubility after molecular weight correction factor.
Where [10] appears, read: distilled water, water, solvent DW (distilled water), read-out: Solubility in NS and DW.
Setting [11] is: normal saline, saline or isotonic, solvent NS (normal saline), read-out: Solubility after molecular weight correction factor.
Setting [12] is: normal saline, saline or isotonic, solvent NS (normal saline), read-out: Solubility in NS and DW.
The mark [13] stands for this setting: 200 mg/kg dose, found most effective.
The mark [14] stands for this setting: central brain region (primarily hippocampus), 10 mg/kg via gavage.

Regarding `Cc1cccc(Nc2ccccc2C(=O)O)c1C` [MFA, N-(2,3-Dimethylphenyl)anthranilic acid, reference compound], the “Aqueous solubility checked on HPLC” value in series [1] is “No peak”. Besides, the “Area (HPLC)” value in series [1] (solvent DW (distilled water)) and in series [1] (solvent NS (normal saline)) was “No Peak” in each case. In addition, the “Aqueous solubility on visual inspection” value in series [1] (water) was “insoluble”. In addition, the “BBB permeability vs saline-treated controls” value in series [2] (setting [7]) is “significant increase”; in series [2] (setting [8]), “significant increase”; in series [2] (hippocampus, 50 mg/kg via gavage) it was “significant increase”; in series [2] (thalamus, 50 mg/kg via gavage) it was “significant increase”; in series [2] (thalamus, 200 mg/kg via gavage) it was “significant increase”. Further, the Water solubility in series [3] is 0.004%.
As for `Cc1cccc(Nc2ccccc2C(=O)OCOC(=O)c2ccc[n+](C)c2)c1C` [MFA-MeNICA, MFA-N-methylnicotinic acid], in series [4], the “Stability 1 Day ACN 4° C.” value is given as “Stable”, the “Stability 1 Day ACN RT” value is “Stable”, the Stability in acetonitrile entry is given as “stable” and the “Stability in distilled water after 1 day” value was “unstable”.
As to `CNC(=O)c1ccc[n+](COC(=O)c2ccccc2Nc2cccc(C)c2C)c1` [MFA-MeNIC, MFA- N-Methylnicotinamide], in series [4], the “Stability in acetonitrile and in distilled water up to 7 days” value (from here on “Stability … to 7 days”) was “stable”; the “Stability 1 Day ACN 4° C.” value is “Stable”; the “Stability 7 Day ACN 4° C.” value is given as “Stable”; the “Stability 1 Day ACN RT” value was “Stable”. In series [4], the “Stability 7 Day ACN RT” value is “Stable”, the “Stability 1 Day DW 4° C.” value is recorded as “Stable”, the “Stability 7 Day DW 4° C.” value was “Stable” and the “Stability 1 Day DW RT” value is “Stable”. For the same molecule, in series [4], the “Stability 7 Day DW RT” value is “Stable”. The “Aqueous solubility checked on HPLC” value in series [1] is on record as “much higher”. Also, the solubility in series [1] (setting [9]) was 200 µg/mL. Further, the solubility in series [1] (setting [10]) was 460 µg/mL. For the same molecule, the solubility in series [1] (setting [11]) was 270 µg/mL. The solubility in series [1] (setting [12]) was 600 µg/mL. The “Area (HPLC)” value in series [1] (solvent DW (distilled water)) came out at 10643970. Further, the “Area (HPLC)” value in series [1] (solvent NS (normal saline)) turned out to be 13844823. The “Aqueous solubility on visual inspection” value in series [1] (water) was “significantly higher”.
Take `Cc1cccc(Nc2ccccc2C(=O)OCOC(=O)c2ccc[n+](COC(=O)NC(C)C)c2)c1C` [MFA-PCA, MFA-Pyridinium, 3-carboxy-1-[N-(1-methylethyl)carbamic acid]]: in series [4], the Stability in acetonitrile result was “not found to be stable” and the “Stability in distilled water after 1 day” value is recorded as “not found to be stable”.
`Cc1cccc(Nc2ccccc2C(=O)OC[n+]2cccc(C(N)=O)c2)c1C` [MFA-NIC, MFA-Nicotinamide]: in series [4], the “Stability … to 7 days” value is “stable”; the “Stability 1 Day ACN 4° C.” value is given as “Stable”; the “Stability 7 Day ACN 4° C.” value was “Stable”; the “Stability 1 Day ACN RT” value is “Stable”. Besides, in series [4], the “Stability 7 Day ACN RT” value is “Stable”, the “Stability 1 Day DW 4° C.” value is “Stable”, the “Stability 7 Day DW 4° C.” value is listed as “Stable” and the “Stability 1 Day DW RT” value is reported as “Stable”. The “Stability 7 Day DW RT” value in series [4] is reported as “Stable”. Further, the “Aqueous solubility checked on HPLC” value in series [1] was “much higher”. Also, the solubility in series [1] (setting [9]) was 130 µg/mL. Also, the solubility in series [1] (setting [10]) is 280 µg/mL. In addition, the solubility in series [1] (setting [11]) came out at 40 µg/mL. Further, in series [1] (setting [12]), the solubility came to 100 µg/mL. Besides, the “Area (HPLC)” value in series [1] (solvent DW (distilled water)) is recorded as 6867539. Also, the “Area (HPLC)” value in series [1] (solvent NS (normal saline)) was determined as 2350506. In addition, the “Aqueous solubility on visual inspection” value in series [1] (water) was “significantly higher”. Also, the “BBB permeability, overall effect” value in series [2] (setting [13]) is “effective in preventing an increase in BBB permeability”. Also, the “BBB permeability vs saline-treated controls” value in series [2] (cerebral cortex, 10 mg/kg via gavage) is given as “not significantly different”. For the same molecule, the “BBB permeability vs saline-treated controls” value in series [2] (setting [7]) is listed as “significant increase”. The “BBB permeability vs saline-treated controls” value in series [2] (setting [8]) is “not significantly different”. Moreover, the “BBB permeability vs saline-treated controls” value in series [2] (hippocampus, all doses (10, 50 or 200 mg/kg via gavage)) is “None of the MFA-NIC (shown in FIGS. 4-11 as pro-MFA or pMFA)-treated rats were found to be significantly different”. Further, the “BBB permeability vs saline-treated controls” value in series [2] (thalamus, all doses (10, 50 or 200 mg/kg via gavage)) is “None of the MFA-NIC (pro-MFA or pMFA)-treated rats were found to be significantly different”. Moreover, in series [5] (setting [13]), the “Brain metabolite levels, overall effect” value is “effective in restoring brain metabolite levels back to normal”. For the same molecule, in series [5] (setting [14]), the “Myo-Ins/Cho ratio vs control (non-treated, non-seizure) group” value is reported as “significant decrease” and the “NAA/Cho ratio vs control (non-treated, non-seizure) group” value is “significant decrease”. The “Level of seizure episodes (EEG)” value in series [6] was “does reduce the level of seizure episodes”.
Regarding `Cc1cccc(Nc2ccccc2C(=O)OC[n+]2cccc(C(=O)N(C)C)c2)c1C` [MFA-2MeNIC, MFA- N,N-Dimethylnicotinamide N-Methylnicotinamide], in series [4], the “Stability … to 7 days” value is “stable”; the “Stability 1 Day ACN 4° C.” value is recorded as “Stable”; the “Stability 7 Day ACN 4° C.” value was “Stable”; the “Stability 1 Day ACN RT” value is “Stable”. For the same molecule, in series [4], the “Stability 7 Day ACN RT” value is “Stable”, the “Stability 1 Day DW 4° C.” value is “Stable”, the “Stability 7 Day DW 4° C.” value is reported as “Stable” and the “Stability 1 Day DW RT” value is given as “Stable”. In series [4], the “Stability 7 Day DW RT” value was “Stable”. In addition, the “Aqueous solubility checked on HPLC” value in series [1] was “much higher”. For the same molecule, the solubility in series [1] (setting [9]) came out at 180 µg/mL. In addition, in series [1] (setting [10]), the solubility was 390 µg/mL. The solubility in series [1] (setting [11]) worked out at 330 µg/mL. Moreover, in series [1] (setting [12]), the solubility came out at 720 µg/mL. For the same molecule, the “Area (HPLC)” value in series [1] (solvent DW (distilled water)) is recorded as 9876828. Besides, in series [1] (solvent NS (normal saline)), the “Area (HPLC)” value turned out to be 18274457. For the same molecule, the “Aqueous solubility on visual inspection” value in series [1] (water) is “significantly higher”.
